# Data from the supplement of paper PMC13380429.
# Columns and labels:
# Details in all cases: 72 h
# HepG2 [1] = assay: drug sensitivity score (DSS) for viability; higher = more toxic; extreme values may be limits of the assay
# Calu-3 [2] = assay: as above
# Vero E6 [3] = assay: as above
# U2OS [4] = assay: as above
# Caco-2 [5] = assay: as above
# HepG2 [6] = assay: cell viability relative to DMSO; higher = less toxic
# Calu-3 [7] = assay: as above
# Vero E6 [8] = assay: as above
# U2OS [9] = assay: as above
# Caco-2 [10] = assay: as above
# HepG2 [11] = assay: relative viability EC50 (midpoint between 100% and the lowest measured viability); higher = less toxic
# Calu-3 [12] = assay: as above
# Vero E6 [13] = assay: as above
# U2OS [14] = assay: as above
# Caco-2 [15] = assay: as above
Structure (SMILES),drug sensitivity score (HepG2 [1]),drug sensitivity score (Calu-3 [2]),drug sensitivity score (Vero E6 [3]),drug sensitivity score (U2OS [4]),drug sensitivity score (Caco-2 [5]),cell viability (HepG2 [6]; 1 nM) [%],cell viability (HepG2 [6]; 10 nM) [%],cell viability (HepG2 [6]; 100 nM) [%],cell viability (HepG2 [6]; 1000 nM) [%],cell viability (HepG2 [6]; 10000 nM) [%],cell viability (Calu-3 [7]; 1 nM) [%],cell viability (Calu-3 [7]; 10 nM) [%],cell viability (Calu-3 [7]; 100 nM) [%],cell viability (Calu-3 [7]; 1000 nM) [%],cell viability (Calu-3 [7]; 10000 nM) [%],cell viability (Vero E6 [8]; 1 nM) [%],cell viability (Vero E6 [8]; 10 nM) [%],cell viability (Vero E6 [8]; 100 nM) [%],cell viability (Vero E6 [8]; 1000 nM) [%],cell viability (Vero E6 [8]; 10000 nM) [%],cell viability (U2OS [9]; 1 nM) [%],cell viability (U2OS [9]; 10 nM) [%],cell viability (U2OS [9]; 100 nM) [%],cell viability (U2OS [9]; 1000 nM) [%],cell viability (U2OS [9]; 10000 nM) [%],cell viability (Caco-2 [10]; 1 nM) [%],cell viability (Caco-2 [10]; 10 nM) [%],cell viability (Caco-2 [10]; 100 nM) [%],cell viability (Caco-2 [10]; 1000 nM) [%],cell viability (Caco-2 [10]; 10000 nM) [%],relative viability EC50 (HepG2 [11]) [nM],relative viability EC50 (Calu-3 [12]) [nM],relative viability EC50 (Vero E6 [13]) [nM],relative viability EC50 (U2OS [14]) [nM],relative viability EC50 (Caco-2 [15]) [nM]
CN1CCC[C@@H]1CCSc1ccc(O)cc1 [SIB-1553A],0,0,0,0,0,95,88.9,95.4,88.1,111,98.7,103,98.6,91.6,99.3,106,95.7,97.5,96,104,97.9,101,97.1,101,106,94.4,100,99.7,102,105,> 10000,> 10000,> 10000,> 10000,> 10000
C=CCNc1ncnc2ccc(Br)cc12 [SMER-28],0.6,0.4,0,0,0,92.3,98,102,102,78.8,101,103,96.1,100,82.7,93.6,98.3,95.8,99.8,101,101,97,102,96.9,101,99.5,93.4,98.7,103,91.2,> 10000,> 10000,> 10000,> 10000,> 10000
Cc1nc(-c2cccnc2)sc1C(=O)Nc1ccccc1-c1cn2c(CN3CCOCC3)csc2n1 [SRT2104],0,0,0,0,0,100,92.8,98.8,90.6,108,93.6,98.8,102,104,112,98,94.9,92.9,90.8,106,95.5,104,94.6,101,99.2,90.6,92.2,104,99.2,102,> 10000,> 10000,> 10000,> 10000,> 10000
CCS(=O)(=O)c1cccc(-c2cc(C(=O)NC3CCN(C)CC3)c(C)c3[nH]c4ncc(C)cc4c23)c1 [TAK-901],12.7,8,1.1,8.9,6.7,94.1,104,76.5,48.1,15.7,108,100,95.5,69.9,21.3,105,100,100,97,78.7,98.3,98.5,98.9,73.6,9.3,98.4,99.7,90.4,72,36.5,439,1280,> 10000,1430,1060
FC(F)(F)c1ccccc1-c1cc(C(F)(F)F)c2[nH]c(C3=NOC4(CCCCC4)C3)nc2c1 [TC-I-2014],0,0,0,0,0,91.6,103,97.4,98.4,89.3,112,105,97.7,99.8,97.7,95.6,98.8,90.1,94.8,89.5,106,103,103,100,90.7,91.9,95.5,96.8,93.4,89.8,> 10000,> 10000,> 10000,> 10000,> 10000
CC(C)c1ccccc1Cc1cc(C(=O)Nc2ccc(S(=O)(=O)c3ccccc3C(C)(C)C)cc2)c(O)c(O)c1O [TW-37],10.6,6.2,12,13,13.1,98.8,98.6,96.1,49.6,20.3,107,98.1,107,86,28.8,92.1,102,96.1,43.2,7.7,102,94.7,95.7,36.5,4.6,88.7,89.7,93.5,36.7,9.2,704,1750,746,654,557
CC(C)C(=O)c1ccc(O)c(O)c1 [U-0521],0,0,0,0,0.5,96.3,77.3,109,114,105,102,96.9,102,94.4,97.4,108,104,102,97.6,92.9,99.8,95.4,100,97.3,93.6,98.6,102,101,88,97,> 10000,> 10000,> 10000,> 10000,> 10000
CCCN(CCC)[C@@H]1CCc2c(OC)cccc2[C@@H]1C [UH-232-(+)],0,0,0,0,0,97.7,103,87.2,102,95.8,102,104,103,102,95,95.9,102,96.5,101,100,108,106,104,101,99.4,95.6,100,97.1,93.6,92.7,> 10000,> 10000,> 10000,> 10000,> 10000
CC[C@]1(O)C[C@@H]2CN(CCc3c([nH]c4ccccc34)[C@@](C(=O)OC)(c3cc4c(cc3OC)N(C)[C@H]3[C@@](O)(C(=O)OC)[C@H](OC(C)=O)[C@]5(CC)C=CCN6CC[C@]43[C@@H]65)C2)C1 [Vinblastine (sulfate)],27.8,22,20.6,31.8,24.1,99.3,43.9,34.7,32.5,34.8,87.5,64.9,50.5,41.6,34.3,100,91.3,48.8,30.1,18.1,96.1,48.1,24.9,19.6,16.8,90.3,56.8,44.4,43.9,27.7,5.3,10.5,68.8,7.1,10.5
CC[C@]1(O)C[C@H]2CN(CCc3c([nH]c4ccccc34)[C@@](C(=O)OC)(c3cc4c(cc3OC)N(C=O)[C@H]3[C@@](O)(C(=O)OC)[C@H](OC(C)=O)[C@]5(CC)C=CCN6CC[C@]43[C@@H]65)C2)C1 [Vincristine (sulfate)],24.3,19.1,14.4,24.7,23.3,109,68.4,39.2,35.4,36.9,88,78.2,54.8,39.6,34.6,98.9,102,82.9,34.2,29.8,97.1,80.8,35.4,19.5,17.6,91.9,66,42.5,41.4,34.8,10.2,24.8,196,30.2,9.4
COC(=O)c1ccc(N2CCN(C)CC2)c(NC(=O)c2cccc(OC)c2)c1 [WDR5-0103],0,0,0,0,0,102,114,85.5,112,102,98.9,93.4,99.5,97.4,97.8,94.6,98.2,94.2,102,103,98.5,94.8,96.8,95.5,101,88.8,97.5,91.7,99.9,89.8,> 10000,> 10000,> 10000,> 10000,> 10000
